Target: Bruton's Tyrosine Kinase (inactivated state) (Homo sapiens (Human), UniProt Q06187)
Test: Bruton's Tyrosine Kinase (BTK) Inhibition TR-FRET (Time Resolved FRET) competition assay
Type: binding
Settings: BTK-Eu / Kinase Tracer 178 competition, incubated 18-24 h at 14° C.
Procedure: Bruton's Tyrosine Kinase (BTK) Inhibition TR-FRET (Time Resolved FRET) Assay
This BTK competition assay measures compound potency (IC50) for the inactivated state of Bruton's Tyrosine Kinase using FRET (Forster/Fluorescence Resonance Energy Transfer) technology. The BTK-Eu complex was incubated on ice one hour prior to use at a starting concentration of 50 nM BTK-Bioease™: 10 nM Eu-streptavidin (Perkin-Elmer Catalog #AD0062). The assay buffer consisted of 20 mM HEPES (pH 7.15), 0.1 mM DTT, 10 mM MgCl2, 0.5 mg/ml BSA with 3% Kinase Stabilizer (Fremont Biosolutions, Catalog #STB-K02). After 1 h, the reaction mixture from above was diluted 10 fold in assay buffer to make 5 nM BTK: 1 nM Eu-Streptavidin complex (donor fluorophore). 18 μl of a mixture of 0.11 nM BTK-Eu and 0.11 nM Kinase Tracer 178 (Invitrogen, Catalog #PV5593,) with BTK-Eu alone as no negative control, was then dispensed into 384-well flat bottom plates (Greiner, 784076). Compounds to be tested in assay were prepared as 10× concentrations and serial dilution in half-log increments was performed in DMSO so as to generate 10 point curves. To initiate the FRET reaction, compounds prepared as 10× stock in DMSO was added to the plates and the plates were incubated 18-24 h at 14° C.
After the incubation the plates were read on a BMG Pherastar Fluorescent plate reader (or equivalent) and used to measure the emission energy from the europium donor fluorophore (620 nm emission) and the FRET (665 nm emission). The negative control well values were averaged to obtain the mean minimum. The positive “no inhibitor” control wells were averaged to obtain the mean maximum. Percent of maximal FRET was calculated using following equation: % max FRET=100×[(FSRcmpd−FSRmean min)/(FSRmean max−FSRmean min)]
where FSR=FRET Signal ratio. % Max FRET curves were plotted in Activity Base (Excel) and the IC50(%), hill slope, z′ and % CV were determined. The mean IC50 and standard deviation will be derived from duplicate curves (singlet inhibition curves from two independent dilutions) using Microsoft Excel.
Representative compound data for this assay are listed below in Table II.

Bruton's Tyrosine Kinase (inactivated state), sequence (Q06187 whole entry): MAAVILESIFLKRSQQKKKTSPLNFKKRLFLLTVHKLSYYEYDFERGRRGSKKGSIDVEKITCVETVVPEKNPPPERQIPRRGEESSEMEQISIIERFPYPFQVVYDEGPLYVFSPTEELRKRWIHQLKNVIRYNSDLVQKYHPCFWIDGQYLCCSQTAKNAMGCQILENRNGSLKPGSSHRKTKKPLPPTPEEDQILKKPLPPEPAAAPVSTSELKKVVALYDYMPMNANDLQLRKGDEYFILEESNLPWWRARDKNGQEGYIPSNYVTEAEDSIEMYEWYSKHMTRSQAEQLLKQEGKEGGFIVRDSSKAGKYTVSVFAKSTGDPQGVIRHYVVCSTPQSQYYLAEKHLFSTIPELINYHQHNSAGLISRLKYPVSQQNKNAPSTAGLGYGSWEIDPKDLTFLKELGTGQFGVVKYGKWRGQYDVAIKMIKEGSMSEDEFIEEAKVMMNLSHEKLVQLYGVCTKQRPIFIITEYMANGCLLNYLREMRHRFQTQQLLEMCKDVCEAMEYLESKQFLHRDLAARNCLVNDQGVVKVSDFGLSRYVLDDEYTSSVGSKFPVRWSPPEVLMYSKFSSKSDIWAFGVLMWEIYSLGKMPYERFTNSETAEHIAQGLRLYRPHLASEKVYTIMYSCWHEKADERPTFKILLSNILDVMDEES

IC50 [µM]	SMILES
6.91	Cc1c(NC(=O)c2ccc(C(C)(C)C)cc2)cccc1-c1cc[nH]c(=O)c1 [Compound I-7, 4-tert-Butyl-N-[2-methyl-3-(2-oxo-1,2-dihydro-pyridin-4-yl)-phenyl]-benzamide]
> 100	CC(C)(C)c1cc(F)c2c(=O)n(Cc3ccc(-c4cc[nH]c(=O)c4)c(CO)c3)ncc2c1 [Compound I-8, 6-tert-Butyl-8-fluoro-2-[3-hydroxymethyl-4-(2-oxo-1,2-dihydro-pyridin-4-yl)-benzyl]-2H-phthalazin-1-one]
52.3	CC(C)(C)c1cc(F)c2c(=O)n(Cc3cc(CO)c(-c4cc[nH]c(=O)c4)cc3F)ncc2c1 [Compound I-9, 6-tert-Butyl-8-fluoro-2-[2-fluoro-5-hydroxymethyl-4-(2-oxo-1,2-dihydro-pyridin-4-yl)-benzyl]-2H-phthalazin-1-one]
0.00711	Cn1cc(-c2cc(-c3ccc(CN4Cc5cc(C(C)(C)C)sc5C4=O)c(F)c3)cc(=O)[nH]2)cn1 [Compound I-10, 2-tert-Butyl-5-{2-fluoro-4-[6-(1-methyl-1H-pyrazol-4-yl)-2-oxo-1,2-dihydro-pyridin-4-yl]-benzyl}-4,5-dihydro-thieno[2,3-c]pyrrol-6-one]

The next lines start with the molecule.

SMILES	IC50 [µM]
CC(C)(C)c1cc(F)c2c(=O)n(Cc3ccc(-c4cc[nH]c(=O)c4)cc3)ncc2c1 [Compound I-1, 6-tert-Butyl-8-fluoro-2-[4-(2-oxo-1,2-dihydro-pyridin-4-yl)-benzyl]-2H-phthalazin-1-one]	3.32
CC(C)(C)c1cc(F)c2c(=O)n(Cc3ccc(-c4cc[nH]c(=O)c4)cc3F)ncc2c1 [Compound I-2, 6-tert-Butyl-8-fluoro-2-[2-fluoro-4-(2-oxo-1,2-dihydro-pyridin-4-yl)-benzyl]-2H-phthalazin-1-one]	0.983
CC(C)(C)c1cc(F)c2c(=O)n(-c3cccc(-c4cc[nH]c(=O)c4)c3CO)ncc2c1 [Compound I-3, 6-tert-Butyl-8-fluoro-2-[2-hydroxymethyl-3-(2-oxo-1,2-dihydro-pyridin-4-yl)-phenyl]-2H-phthalazin-1-one]	0.366
CC(C)(C)c1cc(F)c2c(=O)n(Cc3c(F)cc(-c4cc[nH]c(=O)c4)cc3F)ncc2c1 [Compound I-4, 6-tert-Butyl-2-[2,6-difluoro-4-(2-oxo-1,2-dihydro-pyridin-4-yl)-benzyl]-8-fluoro-2H-phthalazin-1-one]	13.3
CC(C)(C)c1cc(F)c2c(=O)n(Cc3ccc(-c4cc[nH]c(=O)c4)cc3CO)ncc2c1 [Compound I-5, 6-tert-Butyl-8-fluoro-2-[2-hydroxymethyl-4-(2-oxo-1,2-dihydro-pyridin-4-yl)-benzyl]-2H-phthalazin-1-one]	3.14
Cn1cc(-c2cc(-c3ccc(Cn4ncc5cc(C(C)(C)C)cc(F)c5c4=O)c(F)c3)cc(=O)[nH]2)cn1 [Compound I-6, 6-tert-Butyl-8-fluoro-2-{2-fluoro-4-[6-(1-methyl-1H-pyrazol-4-yl)-2-oxo-1,2-dihydro-pyridin-4-yl]-benzyl}-2H-phthalazin-1-one]	0.0142

— patent publication US9458105B2, “Inhibitors of Bruton's tyrosine kinase” (Hoffmann-La Roche Inc., priority 2012, dated 2016)
